Data on four compounds can be found in patent US8361994B2, “Primary amine diazeniumdiolate heterocyclic derivatives” (Merck Sharp & Dohme Corp, priority 2011, dated 2013).

This test relates to Male beagle dogs. Description: canine telemetry protocol, blood pressure reduction efficacy. Format: in vivo. The settings on record: change from baseline, 3 mg/kg, oral gavage; for ΔPP (mm Hg) 1-6 h / ΔPP (mm Hg) 6-12 h / ΔPP (mm Hg) 12-18 h: pulse pressure; for ΔSBP (mm Hg) 1-6 h / ΔSBP (mm Hg) 6-12 h / ΔSBP (mm Hg) 12-18 h: systolic blood pressure. As to the method:
Compounds of the invention were evaluated for blood pressure reduction efficacy using the following canine telemetry protocol described below.
Male beagle dogs (approximately 1-3 years old) with a body weight of between 10 and 16 kg were surgically implanted with DSI radiotelemetry devices (model: TL11M2-D70-PCT). Briefly, under an inhalant anesthesia, isoflurane/oxygen mixture (1-3.5%/to effect), the body of the telemetry device was positioned and secured intra-abdominally. Subsequently, the arterial catheter of the telemetry device was passed subcutaneously to the inguinal area and introduced into the femoral artery and advanced to the level of the descending aorta. The catheter was secured with 2-0 silk ligatures. The muscle and underlying fascia was closed over the catheter using absorbable suture and the skin was closed using non-absorbable suture. The animals were allowed a minimum recovery period of 2 weeks between surgery and the evaluation of test compounds.
Compound evaluation consisted of a 3 day paradigm at a 3 mg/kg dose. On the first day, no compounds were administered during a 24 hour period of baseline data collection. Blood pressure and heart rate data were collected continuously for one minute periods at 10 minute intervals. On the days of compound administration half the animals received test article with the other half receiving the vehicle used for compound formulation. All test materials were administered by oral gavage in a volume of 1 mL/kg. Data are expressed either as raw values (mm Hg or beats per minute) or as the change from baseline (average value for about 12 hours in low activity period prior to dosing). Change is SBP (systolic blood pressure) and PP (pulse pressure) over time is shown below: […]

Take `CC(C)(C)NC(=O)N1CC[C@@H](O/N=[N+](\[O-])NC(C)(C)C)C1` [Example 9, O^2-[(3R)-1-(tert-butylcarbamoyl)pyrrolidin-3-yl]1-(N-tert-butylamino)diazen-1-ium-1,2-diolate]: the “ΔPP (mm Hg) 1-6 h” value was −23 mm Hg, the “ΔPP (mm Hg) 6-12 h” value was −27 mm Hg, the “ΔPP (mm Hg) 12-18 h” value was −11 mm Hg and the “ΔSBP (mm Hg) 1-6 h” value is −24 mm Hg. Besides, the “ΔSBP (mm Hg) 6-12 h” value was −25 mm Hg and the “ΔSBP (mm Hg) 12-18 h” value is −18 mm Hg.

In the case of `CC(C)(C)N/[N+]([O-])=N/OC1CCN(c2ccc(C#N)cn2)CC1` [Example 22, O^2-[1-(5-cyanopyridin-2-yl)piperidin-4-yl]1-(N-tert-butylamino)diazen-1-ium-1,2-diolate], the “ΔPP (mm Hg) 1-6 h” value was −15 mm Hg, the “ΔPP (mm Hg) 6-12 h” value was −17 mm Hg, the “ΔPP (mm Hg) 12-18 h” value was −16 mm Hg and the “ΔSBP (mm Hg) 1-6 h” value was −19 mm Hg. The “ΔSBP (mm Hg) 6-12 h” value is on record as −18 mm Hg and the “ΔSBP (mm Hg) 12-18 h” value is recorded as −21 mm Hg.

For `CC(C)(C)N/[N+]([O-])=N/O[C@@H]1CCN(c2cccc(C#N)c2)C1` [Example 32, O^2-[(3R)-1-(3-cyanophenyl)pyrrolidin-3-yl]1-(N-tert-butylamino)diazen-1-ium-1,2-diolate], the “ΔPP (mm Hg) 1-6 h” value is on record as −7 mm Hg, the “ΔPP (mm Hg) 6-12 h” value was −12 mm Hg, the “ΔPP (mm Hg) 12-18 h” value is on record as −13 mm Hg and the “ΔSBP (mm Hg) 1-6 h” value is listed as −10 mm Hg. The “ΔSBP (mm Hg) 6-12 h” value is −17 mm Hg and the “ΔSBP (mm Hg) 12-18 h” value is listed as −17 mm Hg.

Consider `Cc1cccc(N2CC[C@@H](O/N=[N+](\[O-])NC(C)(C)C)C2=O)c1` [Example 36, O^2-[(3R)-1-(3-methylphenyl)-2-oxopyrrolidin-3-yl]1-(N-tert-butylamino)diazen-1-ium-1,2-diolate], for which the “ΔPP (mm Hg) 1-6 h” value is on record as −9 mm Hg, the “ΔPP (mm Hg) 6-12 h” value is −7 mm Hg, the “ΔPP (mm Hg) 12-18 h” value is on record as −4 mm Hg and the “ΔSBP (mm Hg) 1-6 h” value is recorded as −23 mm Hg. For the same compound, the “ΔSBP (mm Hg) 6-12 h” value was −17 mm Hg and the “ΔSBP (mm Hg) 12-18 h” value is reported as −14 mm Hg.
